Entries after “also recorded” stand apart in the source; their conditions may differ.
Experiments:
[1] = test system: Drinking In the Dark (DID) murine model of binge drinking; assay: Drinking In the Dark (DID) murine model of binge drinking; format: in vivo, mice; conditions: for binge ethanol consumption: figure legends FIG. 8C to 15C, dose not given
Procedure: Using a standard Drinking In the Dark (DID) murine model of binge drinking, we tested the effect of 0, 25, 35, 50 and 100 mg/kg per os (p.o.) acetylated minocycline (derivative Y, or CMM1) vs control.

E. coli = E. coli zone of inhibition (ZOI) and recovered colony forming units (CFU) per disk; format: cell-based; conditions: dose response
Procedure: Minocycline and two acetylated derivatives, CMM1 (B) and CMM2 (Y), were tested in a dose response manner for A) zone of inhibition (ZOI) and B) recovered colony forming units (CFU) per disk.

[2] = test system: DBA/2J mice, alcohol withdrawal symptoms; assay: Alcohol withdrawal, Handling Induced Convulsion scores; format: in vivo
Procedure: Female and male DBA/2J mice were tested with CMM1, 100 mg/kg p.o., at 2 hrs following 4 g/kg 20% ethanol in saline. Shown are the Handling Induced Convulsion scores, background subtracted and summed over 24 hours. […] Mean±SEM, n=5/group.

[3] = test system: Large White x Landrace hybrid swine; assay: Two-bucket choice water vs 5% ethanol in swine; conditions: 10 mg/kg p.o., n=3/group
[4] = cited from earlier work
AUD traits = conditions: seven tetracyclines tested; earlier published work of the inventors; cited from earlier work
DID ethanol consumption = assay: Drinking In the Dark (DID) ethanol consumption after ten-day GI microbiome sterilization; format: in vivo; conditions: 100 mg/kg i.p.; ampicillin, neomycin, metronidazole, vancomycin pre-treatment vs none; n=7
Procedure: A ten-day “sterilization” treatment with ampicillin, neomycin, metronidozale and vancomycin was used. Bedding was changed daily to avoid repopulation. DID was started on day 11 after one day of no metronidazole. Tigecycline was given at 100 mg/kg intraperitoneal (i.p.) n=7, mean±SEM.

DID consumption = assay: DID ethanol consumption after intracerebroventricular (ICV) dosing; format: in vivo; conditions: 3 ul of 9 mg/ml icv 20 hrs prior to DID testing; n=9-11; p<0.01
Procedure: To test the hypothesis that tigecycline works at the level of the CNS, rather than the PNS, 3 ul of drug (9 mg/ml) was given icy 20 hrs prior to DID testing. n=9-11, mean±SEM, **p<0.01.

CCCCOc1ccc(N(C)C)c2c1C(=O)C1=C(O)C3(O)C(=O)C(C(N)=O)=C(O)C(N(C)C)C3CC1C2 (stereo not shown) [Butyl Ether Minocycline, 10-Butoxy-4,7-bis-dimethylamino-3,12,12a-trihydroxy-1,11-dioxo-1,4,4a,5,5a,6,11,12a-octahydro-naphthacene-2-carboxylic acid amide]
binge ethanol consumption [1]: reduction of binge ethanol consumption

CC(=O)NC(=O)c1c(OC(C)=O)c2c(c(N(C)C)c1OC(C)=O)CC1Cc3c(N(C)C)ccc(OC(C)=O)c3C(=O)C1=C2OC(C)=O (stereo not shown) [CMM1, Acetic acid 3,10,12-triacetoxy-2-acetylcarbamoyl-4,7-bis-dimethylamino-11-oxo-5,5a,6,11-tetrahydro-naphthacen-1-yl ester]
antibiotic activity (ZOI and recovered CFU per disk) (E. coli): loss of antibiotic activity even at high doses | dose dependence of reduction of alcohol consumption ([1]; 0, 25, 35, 50 and 100 mg/kg p.o.): dose-dependent response | ethanol consumption (drinking) ([1]; 0, 25, 35, 50 and 100 mg/kg p.o. vs control, n=4/group, p=0.004): significantly reduced drinking | water consumption ([1]; FIGS. 5A to 5D): not water consumption | efficacy on withdrawal compared with parent drug minocycline ([2]; 100 mg/kg p.o.): more effective than the parent drug | efficacy on withdrawal, females vs males ([2]; 100 mg/kg p.o.): more effective in females | alcohol withdrawal symptoms (Handling Induced Convulsion scores, background subtracted, summed over 24 hours) ([2]; 100 mg/kg p.o. at 2 hrs following 4 g/kg 20% ethanol, female and male, n=5/group): reduced alcohol withdrawal symptoms | onset, peak and duration of withdrawal symptoms ([2]; 100 mg/kg p.o., n=5/group): reduced onset, peak and duration of withdrawal symptoms | alcohol preference [3]: reduced | total ethanol consumption [3]: reduced

CC(=O)NC(=O)c1c(OC(C)=O)c2c(c(N(C)C)c1OC(C)=O)CC1Cc3c(N(C)C)ccc(OC(C)=O)c3C(=O)C1=C2O (stereo not shown) [CMM2, Acetic acid 3,10-diacetoxy-2-acetylcarbamoyl-4,7-bis-dimethylamino-12-hydroxy-11-oxo-5,5a,6,11-tetrahydro-naphthacen-1-yl ester]
antibiotic activity (ZOI and recovered CFU per disk) (E. coli): loss of antibiotic activity even at high doses

CC(=O)NC(=O)c1c(O)cc2c(c1O)C(O)=C1C(=O)c3c(OC(C)=O)ccc(N(C)C)c3CC1C2 (stereo not shown) [De Methyl Diacetate Minocycline, Acetic acid 9-acetylcarbamoyl-4-dimethylamino-8,10,11-trihydroxy-12-oxo-5,5a,6,12-tetrahydro-naphthacen-1-yl ester]
binge ethanol consumption [1]: reduction of binge ethanol consumption

CN(C)[C@@H]1C(O)=C(C(N)=O)C(=O)[C@@]2(O)C(O)=C3C(=O)c4c(O)ccc(Cl)c4[C@@H](O)[C@H]3C[C@@H]12 [Demeclocycline]
LogD [4]: −3.40 | LogP [4]: −1.07

C[C@H]1c2cccc(O)c2C(=O)C2=C(O)[C@]3(O)C(=O)C(C(N)=O)=C(O)[C@@H](N(C)C)[C@@H]3[C@@H](O)[C@@H]21 [Doxycycline]
LogD [4]: −3.29 | LogP [4]: −0.54 | efficacy against AUD traits (AUD traits): efficacious; also recorded: effective

CCOc1ccc(N(C)C)c2c1C(=O)C1=C(O)C3(O)C(=O)C(C(N)=O)=C(O)C(N(C)C)C3CC1C2 (stereo not shown) [Ethyl Ether Minocycline, 4,7-Bis-dimethylamino-10-ethoxy-3,12,12a-trihydroxy-1,11-dioxo-1,4,4a,5,5a,6,11,12a-octahydro-naphthacene-2-carboxylic acid amide]
binge ethanol consumption [1]: reduction of binge ethanol consumption

COc1ccc(N(C)C)c2c1C(=O)C1=C(O)C3(O)C(=O)C(C(N)=O)=C(O)C(N(C)C)C3CC1C2 (stereo not shown) [Methyl Ether Minocycline, 4,7-Bis-dimethylamino-3,12,12a-trihydroxy-10-methoxy-1,11-dioxo-1,4,4a,5,5a,6,11,12a-octahydro-naphthacene-2-carboxylic acid amide]
binge ethanol consumption [1]: reduction of binge ethanol consumption

COc1ccc(N(C)C)c2c1C(=O)C1=C(O)c3c(O)c(C(=O)NC(C)=O)c(O)c(N(C)C)c3CC1C2 (stereo not shown) [Methyl Ether N-Monoacetate Minocycline, 4,7-Bis-dimethylamino-1,3,12-trihydroxy-10-methoxy-11-oxo-5,5a,6,11-tetrahydro-naphthacene-2-carboxylic acid acetyl-amide]
binge ethanol consumption [1]: reduction of binge ethanol consumption

COc1ccc(N(C)C)c2c1C(=O)C1=C(O)c3c(c(N(C)C)c(OC(C)=O)c(C(=O)NC(C)=O)c3OC(C)=O)CC1C2 (stereo not shown) [Methyl Ether Tri Acetate Minocycline, Acetic acid 4-acetoxy-3-acetylcarbamoyl-1,10-bis-dimethylamino-5-hydroxy-7-methoxy-6-oxo-6,11,11a,12-tetrahydro-naphthacen-2-yl ester]
binge ethanol consumption [1]: reduction of binge ethanol consumption

CN(C)c1ccc(O)c2c1CC1CC3C(N(C)C)C(O)=C(C(N)=O)C(=O)C3(O)C(O)=C1C2=O (stereo not shown) [Minocycline, 4,7-Bis-dimethylamino-3,10,12,12a-tetrahydroxy-1,11-dioxo-1,4,4a,5,5a,6,11,12a-octahydro-naphthacene-2-carboxylic acid amide]
antibiotic activity (ZOI and recovered CFU per disk) (E. coli): eliminated E. coli | efficacy against AUD traits (AUD traits): efficacious; also recorded: effective

CN(C)[C@@H]1C(=O)C(C(N)=O)=C(O)[C@@]2(O)C(=O)C3=C(O)c4c(O)cccc4[C@@](C)(O)[C@H]3[C@H](O)[C@@H]12 [Oxytetracycline]
LogD [4]: −4.25 | LogP [4]: −1.5

CC(=O)NC(=O)c1c(OC(C)=O)c2c(c(N(C)C)c1OC(C)=O)CC1Cc3c(N(C)C)ccc(OC(C)=O)c3C(=O)C1=C2OC(C)=O (stereo not shown) [Penta Acetyl Minocycline, Acetic acid 3,10,12-triacetoxy-2-acetylcarbamoyl-4,7-bis-dimethylamino-11-oxo-5,5a,6,11-tetrahydro-naphthacen-1-yl ester]
binge ethanol consumption [1]: reduction of binge ethanol consumption

CCCOc1ccc(N(C)C)c2c1C(=O)C1=C(O)C3(O)C(=O)C(C(N)=O)=C(O)C(N(C)C)C3CC1C2 (stereo not shown) [Propyl Ether Minocycline, 4,7-Bis-dimethylamino-3,12,12a-trihydroxy-1,11-dioxo-10-propoxy-1,4,4a,5,5a,6,11,12a-octahydro-naphthacene-2-carboxylic acid amide]
binge ethanol consumption [1]: reduction of binge ethanol consumption

CC(=O)NC(=O)c1c(OC(C)=O)c2c(c(N(C)C)c1OC(C)=O)CC1Cc3c(N(C)C)ccc(OC(C)=O)c3C(=O)C1=C2O (stereo not shown) [Tetra Acetyl Minocycline, Acetic acid 3,10-diacetoxy-2-acetylcarbamoyl-4,7-bis-dimethylamino-12-hydroxy-11-oxo-5,5a,6,11-tetrahydro-naphthacen-1-yl ester]
binge ethanol consumption [1]: reduction of binge ethanol consumption

CN(C)c1cc(NC(=O)CNC(C)(C)C)c(O)c2c1C[C@H]1C[C@H]3[C@H](N(C)C)C(O)=C(C(N)=O)C(=O)[C@@]3(O)C(O)=C1C2=O [Tigecycline]
DID ethanol consumption / efficacy of tigecycline after gut sterilization (DID ethanol consumption): No significant difference | DID ethanol consumption (DID consumption): reduced DID consumption | LogD [4]: −2.73 | LogP [4]: −1.30 | efficacy against AUD traits (AUD traits): efficacious; also recorded: effective

Source: US12202785B2 (Texas Tech University System, priority 2018, dated 2025)
